# Reference: PMC8704661, “A Structural Approach to Anti-Virulence: A Discovery Pipeline” (Microorganisms, 2021)
# “Also recorded” adds a separate entry of the source.
# Key:
# [1] = system: model insect cell culture; parameters: method as in PMID 34564612; settings: cited from earlier work
# [2] = target: T1, Plx2A (Paenibacillus larvae, UniProt M9V3B7); settings: cited from earlier work
# [3] = target: T1, Plx2A; assay: biochemical; assay type: binding
# [4] = target: T1, Plx2A; assay: biochemical
# [5] = system: Escherichia coli; parameters: method as in PMID 34740095; settings: cited from earlier work
# [6] = system: Staphylococcus aureus; parameters: method as in PMID 34740095; settings: cited from earlier work
# [7] = system: Pseudomonas aeruginosa; parameters: method as in PMID 34740095; settings: cited from earlier work
# [8] = system: C3bot1; settings: cited from earlier work
# [9] = system: P. larvae ERIC I-infected honey bee larva; parameters: method as in PMID 34564612; settings: P. larvae ERIC I infection; cited from earlier work
# [10] = system: C3larvin; parameters: method as in PMID 25477523; settings: read-out: Ki (C3larvin mART enzymatic activity); cited from earlier work
# [11] = system: Vis toxin; parameters: method as in PMID 26352925; settings: cited from earlier work
smiles,measurement,setting,value
"COc1ccc(-c2cc(=O)c3c(O)cc(O)cc3o2)cc1 [Acacetin, 5,7-dihydroxy-2-(4-methoxyphenyl)-4H-chromen-4-one]",Concentration that protected the cell culture against Plx2A cytotoxicity (prevented bi-nucleated cells),[1],30 µM
same,Protection of cultured insect cells from Plx2A intoxication,[1],protected the cultured cells from Plx2A intoxication
same,Inhibition of Plx2A GH activity,[2],strong inhibitors
"O=c1c(O)c(-c2ccc(O)cc2)oc2cc(O)cc(O)c12 [Kaempferol, 3,5,7-trihydroxy-2-(4-hydroxyphenyl)-4H-chromen-4-one]",Kd,[3],37.3 ± 3.6 µM
same,IC50,[4],79.9 ± 6 µM
"COc1cc(-c2cc(=O)c3c(O)c(OC)c(O)cc3o2)ccc1O [Jaceosidin, 5,7-dihydroxy-2-(4-hydroxy-3-methoxyphenyl)-6-methoxy-4H-chromen-4-one]",Kd,[3],24.1 ± 2.9 µM
same,IC50,[4],73.9 ± 4.7 µM
"O=c1c(O)c(-c2ccc(O)c(O)c2)oc2cc(O)cc(O)c12 [Quercetin, 2-(3,4-dihydroxyphenyl)-3,5,7-trihydroxy-4H-chromen-4-one]",Antibacterial activity,[5],potent antibacterial activity
same,Antibacterial activity,[6],potent antibacterial activity
same,Antibacterial activity,[7],potent antibacterial activity
same,Kd,[3],19.9 ± 0.4 µM
same,IC50,[4],24.3 ± 0.8 µM
same,Ki,[4],18 ± 2.8 µM
same,Mechanism of inhibition of Plx2A GH activity (Lineweaver-Burk),[4],non-competitive inhibition; also recorded: non-competitive mechanism
"O=c1cc(-c2ccccc2)oc2cc(O)c(O)c(O)c12 [Baicalein, 5,6,7-trihydroxy-2-phenyl-4H-chromen-4-one]",Protection of cultured insect cells from Plx2A intoxication,[1],not Baicalein
same,Inhibition of Plx2A GH activity,[2],strong inhibitors
"O=c1cc(-c2ccccc2)oc2cc(O)cc(O)c12 [Chrysin, 5,7-dihydroxy-2-phenyl-4H-chromen-4-one]",Kd,[3],40.6 ± 4.7 µM
same,IC50,[4],49.2 ± 2.5 µM
"CS(=O)(=O)NC[C@@H]1CCCN(c2ncnc3[nH]ncc23)C1 [Inhibitor M3, N-{[(3R)-1-{1H-pyrazolo[3,4-d]pyrimidin-4-yl}piperidin-3-yl]methyl}methanesulfon amide]",Inhibition of C3bot1,[8],effective inhibitor
same,Protection of honey bee larva / reduction of larval mortality,[9],failed to protect honey bee larva
same,Ki,[10],11 µM
same,Concentration that protected the cell culture against Plx2A cytotoxicity (prevented bi-nucleated cells),[1],300 µM
same,Protection of cultured insect cells from Plx2A intoxication,[1],protected the cultured cells from Plx2A intoxication
same,Inhibition of Plx2A GH activity,[2],potent inhibitor; also recorded: strong inhibitors
same,IC50,[4],216 ± 22.7 µM
same,Inhibition of Vis toxin,[11],effective inhibitor
"O=c1cc(-c2ccc(O)c(O)c2)oc2cc(O)cc(O)c12 [Luteolin, 2-(3,4-dihydroxyphenyl)-5,7-dihydroxy-4H-chromen-4-one]",Kd,[3],24 ± 1.5 µM
same,IC50,[4],68.1 ± 1.8 µM
"O=c1c(O)c(-c2ccc(O)cc2O)oc2cc(O)cc(O)c12 [Morin, 2-(2,4-dihydroxyphenyl)-3,5,7-trihydroxy-4H-chromen-4-one]",Kd,[3],32.8 ± 11.7 µM
same,IC50,[4],109 ± 4.8 µM
